For data set [1], the target named is T1, human neutrophil elastase (HNE) (Homo sapiens, UniProt P08246).
T1 sequence (P08246 30-267): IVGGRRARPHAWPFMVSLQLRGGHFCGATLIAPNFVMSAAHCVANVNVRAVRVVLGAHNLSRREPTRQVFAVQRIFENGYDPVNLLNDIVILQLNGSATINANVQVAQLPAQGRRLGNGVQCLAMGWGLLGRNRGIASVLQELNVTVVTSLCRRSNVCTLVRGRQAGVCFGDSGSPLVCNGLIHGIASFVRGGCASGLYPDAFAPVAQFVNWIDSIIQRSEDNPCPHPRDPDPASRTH
Nature of the data set: HNE Ki of CE compounds, tested as described in WO 96/16080. Format: biochemical. The note with it: read-out: HNE Ki.

Data set [2] can be described thus: Blood level screening after oral dose. Format: in vivo, Sprague-Dawley rats. The note with it: rat, oral gavage 10 mg/kg; for concentration at 1 h / concentration at 3 h / concentration at 6 h: male, Sprague-Dawley, plasma; for concentration at 1 h: read-out: Plasma Levels (μM) 1 hr; for concentration at 3 h: read-out: Plasma Levels (μM) 3 hr; for concentration at 6 h: read-out: Plasma Levels (μM) 6 hr. As to the method: The inhibitors were dissolved or suspended in polyethylene glycol (PEG), PEG-400 or PEG:H2O:EtOH at a concentration of 10 mg/ml. Unfasted male Sprague-Dawley rats were given an oral dose of this solution by gavage. Rats received 10 mg inhibitor/kg body weight in a volume of 1 ml/kg. After 1,3 or 6 hr., the rats were killed with an overdose of urethane (2.5 g/kg; i.p.) and the blood collected in a heparinized tube via cardiac puncture. Red blood cells were separated from the plasma by centrifugation.
Depending on the inhibitor, one of four organics (ethyl acetate, toluene, isopropyl ether or methyl t-butyl ether) was used to extract the compound from the plasma. Inhibitor concentrations were measured by HPLC or LC/MS analysis.

Data set [3] relates to polymorphoneucleocyte (PMN). The data set can be described thus: Extracellular Matrix (ECM) degradation assay. The note with it: PMN's stimulated with opsonized zymosan, 4 hr at 37° C.; for ECM DATA % Inhibition 1 uM / inhibition at 1 µM: 1 uM inhibitor; for ECM DATA % Inhibition 5 uM / inhibition at 5 µM: 5 uM inhibitor. The format is cell-based. How it is done: Forty-eight well plates on which extracellular matrix had been established were supplied to Cortech by Dr. Simon's group at the State University of New York at Stony Brook. Briefly, the plates were prepared as follows: R22 rat heart smooth muscle cells were seeded into wells at 2.5×10^4 cells/cm. The cells were fed every 4 days with Eagle's Minimal Essential Media supplemented with fetal bovine serum, tryptose phosphate broth, cefotaxime and streptomycin. At confluence, daily supplements of 50 ug/ml ascorbic acid were added for 8 to 10 days during the synthesis of the ECM layer. [^35S]sulfate and [^3H]proline were also added to the culture media to incorporate radiolabel into the matrix. Cells were later lysed with 25 mM NH4OH. Plates were washed three times with water and once with phosphate-buffered saline containing 0.02% NaN3. Plates were stored at 4° C. until use.
Matrix degradation assays were performed as follows: 0.40 ml of Hanks balance salt solution (HBSS) containing 1 or 5 uM test inhibitor (final concentration; diluted from DMSO stock solution; <2% DMSO final concentration) was added to the wells. After 30 minutes, 50 ul of a polymorphoneucleocyte (PMN) suspension was added resulting in 5×10^5 cells/well. PMN's were stimulated with opsonized zymosan. Zymosan particles were washed and suspended in 0.5 ml human serum for 1 hr at 37° C., vortexing every 15 min. The particles were then washed three times with HBSS and added to wells at a ratio of 10 particles/PMN in a volume of 50 ul. After a 4 hr incubation at 37° C., a 100 ul aliquot of the supernatant was withdrawn for scintillation counting. Following removal of the remaining supernatant, the residual ECM was solubilized with 0.5 ml 2M NaOH. The amount of tritium in this solubilized ECM was accessed by scintillation. ECM degradation data are expressed as (soluble counts released/total ECM counts)—(basal counts released without PMN's/total ECM counts).

The Ki is a measure of affinity in units of concentration, obtained from inhibition or displacement. On to “2-[(4-Fluorophenyl)-1,6-dihydro-1-pyrimidinyl]-N-[1-(2-[5-(3-methylbenzyl)-1,3,4-oxadiazolyl]carbonyl)-2-(S)-methylpropyl]acetamide [CE2254]”, for which the inhibition constant Ki in data set [1] came to 2.4 nM. The “Plasma Levels (μM) 1 hr” value in data set [2] (1 hr) stood at 1.751 µM. Also, the “Plasma Levels (μM) 3 hr” value in data set [2] (3 hr) amounted to 1.575 µM. In addition, the “Plasma Levels (μM) 6 hr” value in data set [2] (6 hr) worked out at 2.316 µM. For the same molecule, in data set [3], the “ECM DATA % Inhibition 1 uM” value was 57.2% and the “ECM DATA % Inhibition 5 uM” value was 58.4%.
What is called inhibition is the relative decrease from the control value, in per cent. Lower therefore signals a response near the control. For the molecule `Cc1cccc(Cc2nnc(C(=O)[C@@H](NC(=O)[C@@H]3CCCN3C(=O)[C@@H](NC(=O)OCc3ccccc3)C(C)C)C(C)C)o2)c1` [CE2072, (Benzyloxycarbonyl)-L-valyl-N-[1-(2-[5-(3-methylbenzyl)-1,3,4-oxadiazolyl]carbonyl)-2-(S)-methylpropyl]-L-prolinamide], in data set [2] (1 hr), the concentration at 1 h turned out to be 0.277 µM. In addition, in data set [2] (3 hr), the concentration at 3 h amounted to 0.115 µM. Further, in data set [2] (6 hr), the concentration at 6 h was found to be 0.061 µM. Also, in data set [3], the inhibition at 1 µM was found to be 64.8% and the inhibition at 5 µM is 74.5%.
As for `CC(C)[C@H](NC(=O)[C@@H]1CCCN1C(=O)[C@@H](NC(=O)OCc1ccccc1)C(C)C)C(=O)c1nnc(Cc2ccc(N(C)C)cc2)o1` [CE2100, (Benzyloxycarbonyl)-L-valyl-N-[1-(2-[5-(4-Dimethylaminobenzyl)-1,3,4-oxadiazolyl]carbonyl)-2-(S)-methylpropyl]-L-prolinamide], the Ki in data set [1] came to 0.069 nM. Besides, the concentration at 3 h in data set [2] (3 hr) is 0.064 µM. In data set [3], this molecule returned an inhibition at 1 µM of 57.6% and an inhibition at 5 µM of 56.6%.
`Cc1cccc(Cc2nnc(C(=O)[C@@H](NC(=O)Cn3c(-c4ccc(F)cc4)ncc(N)c3=O)C(C)C)o2)c1` [CE2101, 2-[5-Amino-6-oxo-2-(4-fluorophenyl)-1,6-dihydro-1-pyrimidinyl]-N-[1-(2-[5(3-methylbenzyl)-1,3,4-oxadiazolyl]carbonyl)-2-(S)-methylpropyl]acetamide]: in data set [2] (1 hr), the concentration at 1 h amounted to 1.24 µM. In data set [2] (3 hr), the concentration at 3 h worked out at 1.37 µM. Also, the concentration at 6 h in data set [2] (6 hr) was determined as 1.04 µM. For the same molecule, in data set [3], the inhibition at 1 µM was 44.6% and the inhibition at 5 µM is 51.2%.
As to `Cc1cccc(Cc2nnc(C(=O)[C@@H](NC(=O)CN3C(=O)N[C@H](c4ncc[nH]4)C3=O)C(C)C)o2)c1` [CE2257, 4-(R)-(2-Imidazolyl)-2,5-imidazolidinedione-N-[1-(2-[5-(3-methylbenzyl)-1,3,4-oxadiazolyl]carbonyl)-2-(S)-methylpropyl]acetamide], the Ki in data set [1] amounted to 30 nM. Besides, in data set [3], the “ECM DATA % Inhibition 1 uM” value is on record as 48.3% and the “ECM DATA % Inhibition 5 uM” value is on record as 61.4%.
Take “(R,S)-3-Amino-2-oxo-5-methyl-1,4-(1-thiophenodiazepine)-N-[1-(2-[5-(3-methylbenzyl)-1,3,4-oxadiazolyl]carbonyl)-2-(S)-methylpropyl]acetamide [CE2236]”: in data set [1], the Ki is 7.1 nM. Besides, in data set [3], the “ECM DATA % Inhibition 1 uM” value was 31.9% and the “ECM DATA % Inhibition 5 uM” value turned out to be 31.75%.
The corresponding values for “(R,S)-3-Amino-2-oxo-5-methyl-1,4-(2′,3′-methylenedioxy-benzodiazepine)-N-[1-(2-[5-(3-methylbenzyl)-1,3,4-oxadiazolyl]carbonyl)-2-(R,S)-methylpropyl]acetamide [CE2225]” are 8.2 nM, 30.85% and 43.45%.
The corresponding values for “(R,S)-3-Amino-2-oxo-5-phenyl-1,4-(2′-chlorobenzodiazepine)-N-[1-(2-[5-(3-methylbenzyl)-1,3,4-oxadiazolyl]carbonyl)-2-(R,S)-methylpropyl]acetamide [CE2223]” are 0.93 nM, 34.15% and 36.15%.

Values taken from US6656911B2, “Serine protease inhibitors” (Cortech, Inc., priority 1994, dated 2003).
